Data on two compounds can be found in patent US20240238301A1, “COMPOSITIONS AND METHODS FOR REDUCED TOXICITY IN TRANSPLANTATION USING JANUS KINASE (JAK) INHIBITORS” (THE REGENTS OF THE UNIVERSITY OF COLORADO, A BODY CORPORATE, priority 2021, published 2024).

The conditions of data set [1]: manufacturer reported; cited from earlier work.
Data set [2] deals with Balb/cJ recipients and C57BL/6 donors. Description: MHC-mismatched allogeneic BMT, donor cell engraftment by FACS of peripheral blood (Balb/cJ recipients, C57BL/6 donors). Conditions: 4 Gy RIC TBI, 90 mg/kg oral gavage twice daily Day -5 through Day +2, 4 weeks post-BMT, n=7. The data set is classed as in vivo, mice. As to the method:
(§1) In one exemplary method, mouse models of human allogeneic bone marrow transplant events were prepared. In brief, major histocompatibility complex (MHC)-mismatched bone marrow transplants (BMTs, HCT)—which model human allogeneic BMTs—were performed in mice. Mice used in this exemplary method were the C57BL/6 mouse strain (which express the MHC marker H2K^b) and the Balb/cJ strain (which express the MHC marker H2K^d). Both mouse strains were maintained by homozygous breeding according to established vivarium practices. Mice approximately 6-10 weeks of age were used for both recipients and donors. Donors and recipients were matched in gender (male recipient mice receive cells from male donors while female recipients receive cells from female donors).
(§2) In another exemplary method, BMT was performed by isolating bone marrow cells from the bones of euthanized donor mice using a method similar to previous methods (Amend et al., J Vis Exp. 2016 Apr. 14; (110):53936). […] Viable cells (which excluded Trypan Blue) were counted using a hematocytometer. […] Stained cells were resuspended in PBS and evaluated via Fluorescent-Activated Cell Sorting (FACS) on a Cytek Aurora cytometer. FACS data was analyzed using FloJo software. […] Cells which were negative for Ter119 (RBCs) and positive for CD45 (hematopoietic cells) were further analyzed. […]
(A flow cytometer gives signals particle by particle.)

Data set [3] has as its system recipient and donor NK and T cells (mouse spleen cells). The experiment in a line: Effect on recipient versus donor NK and T cells in spleen after BMT (FACS). The class given is in vivo, mice. Conditions: spleen cells after BMT (data not shown). As for the experimental part:
In another exemplary method, BMTs were performed and assessed to determine the effects of JAK inhibitors on recipient compared to donor NK and T cells as outlined in FIG. 6. In this exemplary method, BMTs were performed in mice as described in Example 1 wherein C57BL/6 mice were the transplant donors while Balb/cJ mice served as stem cell recipients. Recipient mice were treated with Ruxolitinib and given RIC TBI followed by BMT as previously described in the examples herein. On Day +1 and Day +3 post-BMT, a portion of the recipient mice were euthanized, and their spleens were harvested. The spleen cells were prepared into a single cell suspension, subjected to RBC lysis, stained (using previously referenced markers in addition to T-cell subset markers, CD4 and CD8) and analyzed by FACS as described in the examples herein.

Data set [4] concerns C57BL/6 recipients and Balb/cJ donors. The experiment in a line: MHC-mismatched allogeneic BMT, donor cell engraftment by FACS of peripheral blood (C57BL/6 recipients, Balb/cJ donors). To be noted: 6.5 Gy RIC TBI. The class given is in vivo, mice. As for the experimental part: as §1, §2

Take `N#CC[C@H](C1CCCC1)n1cc(-c2ncnc3[nH]ccc23)cn1` [Ruxolitinib phosphate]: the “solubility in DMSO” value in data set [1] is 200 mg/mL.

For `N#CC[C@H](C1CCCC1)n1cc(-c2ncnc3[nH]ccc23)cn1` [ruxolitinib], the “donor cell engraftment (mice engrafted)” value in data set [2] turned out to be 100%; in data set [4] (180 mg/kg Day -5 through Day +2, 4 weeks post-BMT, n=6) it was 100%; in data set [4] (270 mg/kg Day -5 through Day +2, 4 weeks post-BMT, n=3) it was 100%. In data set [3], the “effect on donor T cells” value was “no significant effect”.
